What follows are compounds tested against MAPK14 (human) (UniProt Q16539) (assay: Inhibition of MAPK14 Kinase Activity).
MAPK14 (human), sequence (Q16539 whole entry, looked up): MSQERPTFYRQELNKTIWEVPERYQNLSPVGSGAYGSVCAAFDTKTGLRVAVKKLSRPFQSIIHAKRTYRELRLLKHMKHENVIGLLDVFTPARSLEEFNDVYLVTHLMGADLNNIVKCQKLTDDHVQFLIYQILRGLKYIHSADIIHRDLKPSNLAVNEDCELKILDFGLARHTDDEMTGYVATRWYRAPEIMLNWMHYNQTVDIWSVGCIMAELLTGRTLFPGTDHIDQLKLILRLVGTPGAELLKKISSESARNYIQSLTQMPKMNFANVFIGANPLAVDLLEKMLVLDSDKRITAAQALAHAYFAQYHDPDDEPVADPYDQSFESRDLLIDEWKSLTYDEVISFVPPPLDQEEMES
In the case of `O=C1NCC(Cc2cc(F)cc(F)c2)CN1c1c(Cl)cccc1Cl` (configuration not stated), the IC50 is reported as ≤ 10 µM.
`O=C1CCC(Oc2ccc(F)cc2F)CN1c1c(Cl)cccc1Cl` (configuration not stated) was tested, and the IC50 was ≤ 10 µM.
For `O=C1CCC(Cc2ccccc2F)CN1c1c(Cl)csc1Cl` (configuration not stated), the IC50 was ≤ 10 µM.
`O=C1CCC(Oc2ccccc2Cl)CN1c1c(Cl)ccnc1Cl` (configuration not stated) was tested, and the IC50 was ≤ 10 µM.
`O=C1NCC(Cc2ccc(Cl)cc2Cl)CN1c1c(Cl)cccc1Cl` (configuration not stated) was tested, and the IC50 was ≤ 10 µM.
For `Cc1ccc(SC2CCC(=O)N(c3c(Cl)cncc3Cl)C2)c(C)c1` (configuration not stated), the IC50 was ≤ 10 µM.
In the case of `Cc1cccc(C)c1N1CC(Cc2ccccc2C(=O)O)CCC1=O` (configuration not stated), the IC50 is reported as ≤ 10 µM.
`O=C1CCC(Cc2ccc(F)cc2F)CN1c1cc(Cl)cc(Cl)c1` (configuration not stated) was tested, and the IC50 was ≤ 10 µM.
With `CC(=O)Nc1ccc(CC2CCC(=O)N(c3c(Cl)cccc3Cl)C2)cc1` (configuration not stated) the IC50 was ≤ 10 µM.
`O=C1CCC(Cc2ccc(F)cc2F)CN1c1c(Cl)sc(CO)c1Cl` (configuration not stated) was tested, and the IC50 was ≤ 10 µM.
For `Cc1cc(C#CCN(C)C)cc(C)c1N1C[C@@H](Cc2ccc(F)cc2F)C[C@@H](C)C1=O`, the IC50 was ≤ 10 µM.
In the case of `Cc1ccccc1SC1CCC(=O)N(c2c(Cl)cncc2Cl)C1` (configuration not stated), the IC50 is reported as ≤ 10 µM.
For `Cc1ccc(SC2CCC(=O)N(c3c(Cl)ccnc3Cl)C2)c(C)c1` (configuration not stated), the IC50 was ≤ 10 µM.
For `Cc1ccc(SC2CCC(=O)N(c3c(Cl)cncc3Cl)C2)cc1` (configuration not stated), the IC50 was ≤ 10 µM.
In the case of `O=C1CCC(Oc2cc(F)cc(F)c2)CN1C1C(Cl)CCCC1Cl` (configuration not stated), the IC50 is reported as ≤ 10 µM.
For `O=C1CCC(Oc2ccc(F)cc2F)CN1c1c(Cl)cc(O)nc1Cl` (configuration not stated), the IC50 was ≤ 10 µM.
For `O=C1CCC(Sc2ccc(Cl)cc2)CN1c1c(Cl)csc1Cl` (configuration not stated), the IC50 was ≤ 10 µM.
For `O=C1OCC(Cc2cc(Cl)cc(Cl)c2)CN1c1c(Cl)cccc1Cl` (configuration not stated), the IC50 was ≤ 10 µM.
In the case of `CN1CC(Cc2ccccc2)CN(c2c(Cl)cccc2Cl)C1=O` (configuration not stated), the IC50 is reported as ≤ 10 µM.
`CN1CC(Cc2ccc(F)cc2F)CN(c2c(Cl)cc(N)cc2Cl)C1=O` (configuration not stated) was tested, and the IC50 was ≤ 10 µM.
In the case of `O=C1CCC(Oc2ccc(F)cc2F)CN1c1c(Cl)sc(O)c1Cl` (configuration not stated), the IC50 is reported as ≤ 10 µM.
`CNc1ccc(Cl)c(N2CC(Cc3ccc(F)cc3F)CSC2=O)c1Cl` (configuration not stated) was tested, and the IC50 was ≤ 10 µM.
`CC(=O)Nc1cc(Cl)c(N2CC(Sc3ccc(F)cc3F)CCC2=O)c(Cl)c1` (configuration not stated) was tested, and the IC50 was ≤ 10 µM.
`O=C(Cc1ccccc1)Nc1ccc(Cl)c(N2CC(Cc3ccc(F)cc3F)SCC2=O)c1Cl` (configuration not stated) was tested, and the IC50 was ≤ 10 µM.
For `NC1CCC(Cl)C(N2CC(Sc3ccc(F)cc3F)CCC2=O)C1Cl` (configuration not stated), the IC50 was ≤ 10 µM.
With `O=C(Cc1ccccc1)Nc1cc(Cl)c(N2CC(Sc3ccc(F)cc3F)CCC2=O)c(Cl)n1` (configuration not stated) the IC50 was ≤ 10 µM.
For `O=C1CCC(Cc2ccc(Cl)cc2Cl)CN1C1C(Cl)CCCC1Cl` (configuration not stated), the IC50 was ≤ 10 µM.
In the case of `O=C(Cc1ccccc1)Nc1cnc(Cl)c(N2CC(Cc3ccc(F)cc3F)CCC2=O)c1Cl` (configuration not stated), the IC50 is reported as ≤ 10 µM.
In the case of `O=C1CCC(Cc2ccccc2)CN1c1c(Cl)csc1Cl` (configuration not stated), the IC50 is reported as ≤ 10 µM.
With `O=C1SCC(Cc2ccc(F)cc2F)CN1c1c(Cl)cc(O)cc1Cl` (configuration not stated) the IC50 was ≤ 10 µM.
For `COc1ccccc1CC1COC(=O)N(c2c(Cl)cccc2Cl)C1` (configuration not stated), the IC50 was ≤ 10 µM.
In the case of `Cc1cc(C)cc(CC2CNC(=O)N(c3c(Cl)cccc3Cl)C2)c1` (configuration not stated), the IC50 is reported as ≤ 10 µM.
With `O=C1CCC(CCc2ccccc2)CN1c1c(Cl)cccc1Cl` (configuration not stated) the IC50 was ≤ 10 µM.
With `Cc1cc(/C=C/C(=O)O)cc(C)c1N1CC(Cc2ccc(F)cc2F)CCC1=O` (configuration not stated) the IC50 was ≤ 10 µM.
For `O=C1CCC(Sc2ccc3ccccc3c2)CN1c1c(Cl)csc1Cl` (configuration not stated), the IC50 was ≤ 10 µM.
With `CCOC(=O)CNc1cc(Cl)c(N2CC(Cc3ccc(F)cc3F)CCC2=O)c(Cl)c1` (configuration not stated) the IC50 was ≤ 10 µM.
`CC(=O)Nc1cc(Cl)c(N2CC(Cc3ccc(F)cc3F)CN(C)C2=O)c(Cl)c1` (configuration not stated) was tested, and the IC50 was ≤ 10 µM.
In the case of `O=C1CCC(Oc2cccc3ccccc23)CN1C1C(Cl)CCCC1Cl` (configuration not stated), the IC50 is reported as ≤ 10 µM.
`O=C1CCC(Cc2ccc(F)cc2F)CN1c1c(Cl)cnc(O)c1Cl` (configuration not stated) was tested, and the IC50 was ≤ 10 µM.
`CNc1cnc(Cl)c(N2CC(Oc3ccc(F)cc3F)CCC2=O)c1Cl` (configuration not stated) was tested, and the IC50 was ≤ 10 µM.
In the case of `O=C1CCC(Cc2ccc(F)cc2F)CN1c1c(Cl)cc(Br)cc1Cl` (configuration not stated), the IC50 is reported as ≤ 10 µM.
For `CC(C)(C)NC(=O)CNc1cc(Cl)c(N2CC(Cc3ccc(F)cc3F)CCC2=O)c(Cl)c1` (configuration not stated), the IC50 was ≤ 10 µM.
In the case of `CC(=O)N1CCC(Nc2cc(Cl)c(N3CC(Cc4ccc(F)cc4F)CCC3=O)c(Cl)c2)CC1` (configuration not stated), the IC50 is reported as ≤ 10 µM.
With `Cc1cccc(C)c1N1C[C@H](Cc2ccc(F)cc2F)C[C@H](C)C1=O` the IC50 was ≤ 10 µM.
With `O=C1NCC(Cc2ccc(F)cc2F)CN1c1c(Cl)cc(Br)cc1Cl` (configuration not stated) the IC50 was ≤ 10 µM.
With `COc1ccccc1SC1CCC(=O)N(c2c(Cl)cccc2Cl)C1` (configuration not stated) the IC50 was ≤ 10 µM.
With `COc1ccc(OC2CCC(=O)N(c3c(Cl)cccc3Cl)C2)cc1` (configuration not stated) the IC50 was ≤ 10 µM.
For `COc1ccc(CC2CCC(=O)N(c3c(Cl)csc3Cl)C2)cc1` (configuration not stated), the IC50 was ≤ 10 µM.
`O=C1SCC(Cc2ccc(Cl)cc2)CN1c1c(Cl)cccc1Cl` (configuration not stated) was tested, and the IC50 was ≤ 10 µM.
In the case of `Cc1cc(C)cc(CC2CCC(=O)N(C3C(Cl)CCCC3Cl)C2)c1` (configuration not stated), the IC50 is reported as ≤ 10 µM.
`N#Cc1ccccc1CC1CCC(=O)N(c2c(Cl)cccc2Cl)C1` (configuration not stated) was tested, and the IC50 was ≤ 10 µM.
`NC1CCC(Cl)C(N2CC(Cc3ccc(F)cc3F)CCC2=O)C1Cl` (configuration not stated) was tested, and the IC50 was ≤ 10 µM.
With `O=C1CCC(Oc2ccc(F)cc2)CN1c1c(Cl)cncc1Cl` (configuration not stated) the IC50 was ≤ 10 µM.
For `NC(=O)/C=C/c1cc(Cl)c(N2CC(Cc3ccc(F)cc3F)CCC2=O)c(Cl)c1` (configuration not stated), the IC50 was ≤ 10 µM.
With `O=C1OCC(Cc2ccccc2)CN1c1c(Cl)cccc1Cl` (configuration not stated) the IC50 was ≤ 10 µM.
In the case of `CNc1ccc(Cl)c(N2CC(Cc3ccc(F)cc3F)OCC2=O)c1Cl` (configuration not stated), the IC50 is reported as ≤ 10 µM.
For `CN1CC(Cc2ccc3ccccc3c2)CN(c2c(Cl)cccc2Cl)C1=O` (configuration not stated), the IC50 was ≤ 10 µM.

— the Kinase Knowledgebase extract (Sharma et al. 2016)
